In publication PMC4234429 (Journal of Medicinal Chemistry, 2014):
Bridge positions count the residues as written; N and C are the ends. Square brackets hold non-standard residues; d marks the D form. Peptide text beside a SMILES is read from it. Nle = CCCC[C@H](N)C(=O)O; βAla = NCCC(=O)O

Assay: RP-HPLC capacity factor
Type: physicochemical
Settings: Grace Vydac C-18, 20 min gradient of 18–28% acetonitrile in 20 mM HCl, 1 mL/min

capacity factor (k′)	SMILES
3.32	CC(C)[C@H](NC(=O)[C@@H]1CCCN1C(=O)[C@H](CCCNC(=N)N)NC(=O)[C@H](CS)NC(=O)[C@H](Cc1c[nH]c2ccccc12)NC(=O)[C@H](CCCNC(=N)N)NC(=O)[C@@H](Cc1ccccc1)NC(=O)[C@H](Cc1c[nH]cn1)NC(=O)[C@H](CCC(=O)O)NC(=O)[C@H](CS)NC(=O)[C@H](CS)NC(=O)CCNC(=O)[C@@H]1CC(=O)N[C@@H](CCCNC(=N)N)C(=O)N[C@@H](C)C(=O)N[C@@H](CC(=O)O)C(=O)N[C@H](Cc2ccc(O)cc2)C(=O)N1)C(N)=O [peptide 4, RAD-β-Ala-(Arg^11)CCMSH] (RAD[dY]D[βAla]CCEH[dF]RWCRPV-NH2; lactam N-5)
0.98	CC(C)[C@H](NC(=O)[C@@H]1CCCN1C(=O)[C@H](CCCNC(=N)N)NC(=O)[C@H](CS)NC(=O)[C@H](Cc1c[nH]c2ccccc12)NC(=O)[C@H](CCCNC(=N)N)NC(=O)[C@@H](Cc1ccccc1)NC(=O)[C@H](Cc1c[nH]cn1)NC(=O)[C@H](CCC(=O)O)NC(=O)[C@H](CS)NC(=O)[C@H](CS)NC(=O)CCNC(=O)[C@@H]1CC(=O)N[C@@H](CCCNC(=N)N)C(=O)N[C@@H]([C@@H](C)O)C(=O)N[C@@H](CC(=O)O)C(=O)N[C@H](Cc2ccc(O)cc2)C(=O)N1)C(N)=O [peptide 2, RTD-β-Ala-(Arg^11)CCMSH] (RTD[dY]D[βAla]CCEH[dF]RWCRPV-NH2; lactam N-5)
2.28	CC(C)[C@H](NC(=O)[C@@H]1CCCN1C(=O)[C@H](CCCNC(=N)N)NC(=O)[C@H](CS)NC(=O)[C@H](Cc1c[nH]c2ccccc12)NC(=O)[C@H](CCCNC(=N)N)NC(=O)[C@@H](Cc1ccccc1)NC(=O)[C@H](Cc1c[nH]cn1)NC(=O)[C@H](CCC(=O)O)NC(=O)[C@H](CS)NC(=O)[C@H](CS)NC(=O)CCNC(=O)[C@@H]1CC(=O)N[C@@H](CCC(=O)O)C(=O)N[C@@H](C)C(=O)N[C@@H](CC(=O)O)C(=O)N[C@H](Cc2ccc(O)cc2)C(=O)N1)C(N)=O [peptide 6, EAD-β-Ala-(Arg^11)CCMSH] (EAD[dY]D[βAla]CCEH[dF]RWCRPV-NH2; lactam N-5)
3.17	CCCC[C@@H]1NC(=O)C[C@@H](C(=O)NCCC(=O)N[C@@H](CS)C(=O)N[C@@H](CS)C(=O)N[C@@H](CCC(=O)O)C(=O)N[C@@H](Cc2c[nH]cn2)C(=O)N[C@H](Cc2ccccc2)C(=O)N[C@@H](CCCNC(=N)N)C(=O)N[C@@H](Cc2c[nH]c3ccccc23)C(=O)N[C@@H](CS)C(=O)N[C@@H](CCCNC(=N)N)C(=O)N2CCC[C@H]2C(=O)N[C@H](C(N)=O)C(C)C)NC(=O)[C@@H](Cc2ccc(O)cc2)NC(=O)[C@H](CC(=O)O)NC(=O)[C@H](C)NC1=O [peptide 5, NAD-β-Ala-(Arg^11)CCMSH] ([Nle]AD[dY]D[βAla]CCEH[dF]RWCRPV-NH2; lactam N-5)
1.94	CC(C)[C@H](NC(=O)[C@@H]1CCCN1C(=O)[C@H](CCCNC(=N)N)NC(=O)[C@H](CS)NC(=O)[C@H](Cc1c[nH]c2ccccc12)NC(=O)[C@H](CCCNC(=N)N)NC(=O)[C@@H](Cc1ccccc1)NC(=O)[C@H](Cc1c[nH]cn1)NC(=O)[C@H](CCC(=O)O)NC(=O)[C@H](CS)NC(=O)[C@H](CS)NC(=O)CCNC(=O)[C@@H]1CC(=O)N[C@@H](CCCNC(=N)N)C(=O)N[C@@H](C(C)C)C(=O)N[C@@H](CC(=O)O)C(=O)N[C@H](Cc2ccc(O)cc2)C(=O)N1)C(N)=O [peptide 3, RVD-β-Ala-(Arg^11)CCMSH] (RVD[dY]D[βAla]CCEH[dF]RWCRPV-NH2; lactam N-5)
1.35	CC(C)[C@H](NC(=O)[C@@H]1CCCN1C(=O)[C@H](CCCNC(=N)N)NC(=O)[C@H](CS)NC(=O)[C@H](Cc1c[nH]c2ccccc12)NC(=O)[C@H](CCCNC(=N)N)NC(=O)[C@@H](Cc1ccccc1)NC(=O)[C@H](Cc1c[nH]cn1)NC(=O)[C@H](CCC(=O)O)NC(=O)[C@H](CS)NC(=O)[C@H](CS)NC(=O)CCNC(=O)[C@@H]1CC(=O)N[C@@H](CCCNC(=N)N)C(=O)N[C@@H](CO)C(=O)N[C@@H](CC(=O)O)C(=O)N[C@H](Cc2ccc(O)cc2)C(=O)N1)C(N)=O [peptide 1, RSD-β-Ala-(Arg^11)CCMSH] (RSD[dY]D[βAla]CCEH[dF]RWCRPV-NH2; lactam N-5)
